# Literature values, collected in patent publication US20130266625A1 (YISSUM RESEARCH DEVELOPMENT COMPANY OF THE HEBREW …, priority 2011, published 2013).
# Columns and labels:
# [1] = 50 mg/day over one year
# [2] = system: procollagen alpha1 (I), MMP-1 and TIMP-1 expression in skin; settings: 5% in ethanol:olive oil (1:2), 12 times over 4 weeks
# [3] = system: cultured dermal fibroblasts
smiles,measurement,setting,value
"C[C@]12CC[C@H](O)CC1=CC[C@@H]1[C@@H]2CC[C@]2(C)C(=O)CC[C@@H]12 [DHEA, dehydroepiandrosterone]",harmful consequences,[1],no harmful consequences were observed
same,"skin status (hydration, epidermal thickness, sebum production, skin pigmentation)",[1]; individuals aged 60 years and over,improvement of the skin status
same,basal expression of MMP-1 mRNA and protein,[2],significantly decreased
same,expression of procollagen alpha1 (I) mRNA and protein,[2]; aged and young skin,significantly increase
same,expression of TIMP-1 protein,[2]; aged skin,increased
same,matrix metalloproteinase (MMP)-1 synthesis,[3],decreasing
same,procollagen synthesis,[3],increase procollagen synthesis
same,tissue inhibitor of matrix metalloprotease (TIMP-1) production,[3],increasing
